Like-named read-outs stand apart in the source and are kept apart here.
System: DQ0602
Type: binding, human
Details: for % Read #1 / Read #1: replicate 1; for % Average: mean of two reads; for % Read #2 / Read #2: replicate 2; for Average: mean of the two raw reads; for Read #1 / Read #2: raw signal read
[1] = % of Bio-EBV binding, first assay (02/04/2016, 07/15/2016 or 08/11/2016, by peptide)
[2] = % of Bio-EBV binding, repeat assay (07/19/2016, 07/18/2016 or 08/12/2016, by peptide)
[3] = first assay (02/04/2016, 07/15/2016 or 08/11/2016, by peptide)
[4] = repeat assay (07/19/2016, 07/18/2016 or 08/12/2016, by peptide)

Sequence	Average (two assays) [%]	mean of Bio-EBV epitope binding ± SD (40 μM competitor peptide, 25 nM DQ0602, 100 nM HLA-DM, 1 μM Bio-EBV, acetate pH 4.6, 3 days at 37°C, duplicate, Eu-streptavidin TRF, lower percentage = stronger competitor)	% Read #1 (% of Bio-EBV binding (Bio-EBV average = 100), first assay (02/04/2016, 07/15/2016 or 08/11/2016, by peptide)) [%]	% Average [1] [%]	% Average [2] [%]	% Read #1 [2] [%]	% Read #2 [1] [%]	% Read #2 [2] [%]	Average [3]	Average [4]	Read #1 (first assay (02/04/2016, 07/15/2016 or 08/11/2016, by peptide), competition against Bio-EBV epitope)	Read #1 [4]	Read #2 [3]	Read #2 [4]	binding to DQ0602 (in words) (competition with Bio-EBV epitope, 40 μM peptide, […])
HDSNKGVTAACPH [HA143-155 146N, synthetic 13-mer hemagglutinin peptide containing wild-type 146N]	43.7826	43.78% ± 1.34%	41.1935	42.8329	44.7324	43.7047	44.4722	45.7602	8060.5	7464.5	7752	7293	8369	7636	
YDDEEFLRYLWR [HCRTR2_34-45]															did not appear to bind to DQ0602

Reference: article PMC5722318, “Absence of anti-hypocretin receptor 2 autoantibodies in post pandemrix narcolepsy cases” (PLoS ONE, 2017)
